From patent US11274124B2, “Tubulysin analogues as anticancer agents and payloads for antibody-drug conjugates and methods of treatment therewith” (William Marsh Rice University, priority 2017, dated 2022) come the findings set out here.

By IC50 is commonly meant the concentration needed to halve the response being measured.

Like-named read-outs stand apart in the source and are kept apart here.

Series [1] has as its system MES SA (uterine sarcoma cell line). Description: In vitro cytotoxicity assay (CellTiter-Glo, 72 hours), MES SA. It is filed as cell-based. (In general: Cellular ATP, detected with luciferase, serves as a proxy for viable cell number.)
Series [2] deals with HEK 293T (human embryonic kidney cancer cell line). Kind of series: In vitro cytotoxicity assay (CellTiter-Glo, 72 hours), HEK 293T. The class given is cell-based.
Series [3] deals with MES SA DX (MES SA cell line with marked multi-drug resistance). Kind of series: In vitro cytotoxicity assay (CellTiter-Glo, 72 hours), MES SA DX.
Setting [4] is: Homo sapiens, MES-SA, 72 h, read-out: MES SA, IC50.
The mark [5] stands for this setting: Homo sapiens, MES-SA, 72 h, read-out: MES SA, IC50 Value in nM.
Where [6] appears, read: Homo sapiens, HEK-293T, 72 h, read-out: HEK 293T, IC50.
[7] abbreviates: Homo sapiens, HEK-293T, 72 h, read-out: HEK 293T, IC50 Value in nM.
Where [8] appears, read: Homo sapiens, MES-SA, 72 h, read-out: MES SA DX, IC50.
Where [9] appears, read: Homo sapiens, MES-SA, 72 h, read-out: MES SA DX, IC50 Value in nM.

For the compound `COC(=O)C(CC(Cc1ccccc1)NC(=O)c1csc([C@@H](CC(C(C)C)N(C)C(=O)[C@@H](NC(=O)[C@H]2CCCCN2C)C(C)C)OC(C)=O)n1)NC(=O)OCc1ccccc1` (stereo in doubt) [Tb116, Methyl(2R,4R)-4-[({2-[(1R,3S)-1-acetoxy-4-methyl-3-{methyl[(2S)-3-methyl-2-{[(1-methylpiperidin-2-yl)carbonyl]amino}butanoyl]amino}pentyl]-1,3-thiazol-4-yl}carbonyl)amino]-2-{[(benzyloxy)carbonyl]amino}-5-phenylpentanoate], the concentration for half-maximal inhibition (IC50) was 0.007 nM in series [1] (setting [4]); 0.007 nM in series [1] (setting [5]); 0.003 nM in series [2] (setting [6]); 0.003 nM in series [2] (setting [7]); 6 nM in series [3] (setting [8]); 6 nM in series [3] (setting [9]). In addition, the “cytotoxicities against the marked drug resistant cancer cell line MES SA DX (in words)” value (from here on “cytotoxicities”) in series [3] is “relatively potent (low nanomolar)”.

As to `COC(=O)[C@@H](C)C[C@H](Cc1ccccc1)NC(=O)c1csc([C@H](O)C[C@H](C(C)C)N(C)C(=O)[C@@H](NC(=O)[C@H]2CCCCN2C)C(C(F)(F)F)C(F)(F)F)n1` [Tb80, Methyl (2S,4R)-4-[({2-[(1R,3R)-1-hydroxy-4-methyl-3-{methyl[(2S)-4,4,4-trifluoro-2-({[(2R)-1-methylpiperidin-2-yl]carbonyl}amino)-3-(trifluoromethyl)butanoyl]amino}pentyl]-1,3-thiazol-4-yl}-carbonyl)amino]-2-methyl-5-phenylpentanoate], the IC50 in series [1] (setting [5]), in series [2] (setting [7]) and in series [3] (setting [9]) was greater than 1000 nM throughout.

Regarding `COC(=O)[C@@H](CC(Cc1ccccc1)NC(=O)c1csc([C@@H](CC(C(C)C)N(C)C(=O)[C@@H](NC(=O)[C@H]2CCCCN2C)C(C)C)OC(C)=O)n1)NC(=O)OCc1ccccc1` (stereo in doubt) [Tb115, Methyl(2R,4R)-4-[({2-[(1R,3S)-1-acetoxy-4-methyl-3-{methyl[(2S)-3-methyl-2-{[(1-methylpiperidin-2-yl)carbonyl]amino}butanoyl]amino}pentyl]-1,3-thiazol-4-yl}carbonyl)amino]-2-{[(benzyloxy)carbonyl]amino}-5-phenylpentanoate], the IC50 was determined as 0.02 nM in series [1] (setting [4]); 0.02 nM in series [1] (setting [5]); 0.01 nM in series [2] (setting [6]); 0.01 nM in series [2] (setting [7]); 13.8 nM in series [3] (setting [8]); 13.8 nM in series [3] (setting [9]). Moreover, in series [3], the “cytotoxicities” value is recorded as “relatively potent (low nanomolar)”.

As for `COC(=O)C12C3C4C1C1C2C3C41NC(=O)c1csc([C@@H](C[C@H](C(C)C)N(C)C(=O)[C@@H](NC(=O)[C@H]2CCCCN2C)C2CC2)OC(C)=O)n1` (stereo partly drawn) [Tb99, Methyl 4-[({2-[(1R,3R)-1-acetoxy-3-{[(2S)-2-cyclopropyl-2-({[(2R)-1-methylpiperidin-2-yl]carbonyl}-amino)acetyl](methyl)amino}-4-methylpentyl]-1,3-thiazol-4-yl}carbonyl)amino]cubane-1-carboxylate], the half-inhibitory concentration (IC50) in series [1] (setting [5]), in series [2] (setting [7]) and in series [3] (setting [9]) was greater than 1000 nM throughout.

Consider `COC(=O)[C@H](CO)C[C@H](Cc1ccccc1)NC(=O)c1csc([C@@H](C[C@H](C(C)C)N(C)C(=O)[C@@H](NC(=O)[C@H]2CCCCN2C)C(C)C)OC(C)=O)n1` [Tb120, Methyl (2S,4R)-4-{2-[(1R,3R)-1-acetoxy-3-{(S)—N,3-dimethyl-2-[(R)-1-methylpiperidine-2-carboxamido]butanamido}-4-methylpentyl]thiazole-4-carboxamido}-2-(hydroxymethyl)-5-phenylpentanoate], for which the IC50 was 0.059 nM in series [1] (setting [4]); 0.059 nM in series [1] (setting [5]); 0.039 nM in series [2] (setting [6]); 0.039 nM in series [2] (setting [7]); greater than 14 nM in series [3] (setting [8]); greater than 14 nM in series [3] (setting [9]).

Regarding `COC(=O)[C@@H](CO)C[C@H](Cc1ccccc1)NC(=O)c1csc([C@@H](C[C@H](C(C)C)N(C)C(=O)[C@@H](NC(=O)[C@H]2CCCCN2C)C(C)C)OC(C)=O)n1` [Tb119, Methyl (2R,4R)-4-{2-[(1R,3R)-1-acetoxy-3-{(S)—N,3-dimethyl-2-[(R)-1-methylpiperidine-2-carboxamido]butanamido}-4-methylpentyl]thiazole-4-carboxamido}-2-(hydroxymethyl)-5-phenylpentanoate], the IC50 in series [1] (setting [4]) was 0.093 nM; in series [1] (setting [5]), 0.093 nM; in series [2] (setting [6]), 0.041 nM; in series [2] (setting [7]), 0.041 nM; in series [3] (setting [8]), greater than 14 nM; in series [3] (setting [9]), greater than 14 nM.

With `COC(=O)[C@H](C[C@H](Cc1ccccc1)NC(=O)c1csc([C@@H](C[C@H](C(C)C)N(C)C(=O)[C@@H](NC(=O)[C@H]2CCCCN2C)C(C)C)OC(C)=O)n1)N(C)C` [Tb117, Methyl (2S)-4-{[(2-{1-acetoxy-4-methyl-3-[methyl(3-methyl-2-{[(1-methylpiperidin-2-yl)carbonyl]-amino}butanoyl)amino]pentyl}-1,3-thiazol-4-yl)carbonyl]amino}-2-(dimethylamino)-5-phenylpentanoate], the 50% inhibitory concentration (IC50) in series [1] (setting [4]) was 0.099 nM; in series [1] (setting [5]), 0.099 nM; in series [2] (setting [6]), 0.059 nM; in series [2] (setting [7]), 0.059 nM; in series [3] (setting [8]), 4.63 nM; in series [3] (setting [9]), 4.63 nM.

Consider `CC[C@H](C)[C@H](NC(=O)[C@H]1CCCCN1C)C(=O)N(C)[C@H](C[C@@H](OC(C)=O)c1nc(C(=O)N[C@@H](Cc2ccccc2)C[C@H](C)C(=O)O)cs1)C(C)C` [Tb1, N^14-desacetoxytubulysin H, reference compound], for which the IC50 was 0.34 nM in series [1] (Table 2, 72 hours, CellTiter-Glo, read-out: MES SA, IC50 Value in nM); 0.02 nM in series [2] (Table 2, 72 hours, CellTiter-Glo, read-out: HEK 293T, IC50 Value in nM); greater than 10 nM in series [3] (read-out: MES SA DX, IC50 Value in nM, Table 2, 72 hours, CellTiter-Glo).

Turning to `CCN[C@@H](C[C@H](Cc1ccccc1)NC(=O)c1csc([C@@H](C[C@H](C(C)C)N(C)C(=O)[C@@H](NC(=O)[C@H]2CCCCN2C)C(C)C)OC(C)=O)n1)C(=O)OC` [Tb118, Methyl (2S)-4-{[(2-{1-acetoxy-4-methyl-3-[methyl(3-methyl-2-{[(1-methylpiperidin-2-yl)carbonyl]-amino}butanoyl)amino]pentyl}-1,3-thiazol-4-yl)carbonyl]amino}-2-(ethylamino)-5-phenylpentanoate], the IC50 in series [1] (setting [4]) was found to be 0.14 nM; in series [1] (setting [5]), 0.14 nM; in series [2] (setting [6]), 0.015 nM; in series [2] (setting [7]) it was 0.015 nM; in series [3] (setting [8]) it was 5.6 nM; in series [3] (setting [9]), 5.6 nM. Moreover, in series [3], the “cytotoxicities” value is recorded as “relatively potent (low nanomolar)”.

With `CC(C)[C@@H](C[C@@H](O)c1nc(C(=O)N[C@@H](Cc2ccccc2)C[C@H](C)C(=O)O)cs1)N(C)C(=O)[C@H](CC(F)(F)F)NC(=O)[C@H]1CCCCN1C` [Tb83, (2S,4R)-4-[({2-[(1R,3R)-1-Hydroxy-4-methyl-3-{methyl[(2S)-4,4,4-trifluoro-2-({[(2R)-1-methyl-piperidin-2-yl]carbonyl}amino)butanoyl]amino}pentyl]-1,3-thiazol-4-yl}carbonyl)amino]-2-methyl-5-phenylpentanoic acid], the IC50 in series [1] (setting [5]), in series [2] (setting [7]) and in series [3] (setting [9]) was greater than 1000 nM throughout.

As for `COC(=O)[C@@H](C)C[C@H](Cc1ccccc1)NC(=O)c1nc([C@@H](C[C@H](C(C)C)N(C)C(=O)[C@@H](NC(=O)[C@H]2CCCCN2)C(C)C)OC(C)=O)sc1C` [Tb69, Methyl (2S,4R)-4-[({2-[(1R,3R)-1-acetoxy-4-methyl-3-{methyl[(2S)-3-methyl-2-{[(2R)-piperidin-2-ylcarbonyl]amino}butanoyl]amino}pentyl]-5-methyl-1,3-thiazol-4-yl}carbonyl)amino]-2-methyl-5-phenylpentanoate], the IC50 in series [1] (setting [5]) was 30.8 nM; in series [2] (setting [7]), greater than 1000 nM; in series [3] (setting [9]), greater than 1000 nM.

With `COC(=O)[C@@H](C)C[C@H](Cc1ccccc1)NC(=O)c1nc([C@@H](C[C@H](C(C)C)N(C)C(=O)[C@@H](NC(=O)[C@H]2C[C@H](O)CCN2C)C(C)C)OC(C)=O)sc1C(C)C` [Tb74, Methyl (2S,4R)-4-[({2-[(1R,3R)-1-acetoxy-3-{[(2S)-2-({[(2R,4R)-4-hydroxy-1-methylpiperidin-2-yl]-carbonyl}amino)-3-methylbutanoyl](methyl)amino}-4-methylpentyl]-5-isopropyl-1,3-thiazol-4-yl}-carbonyl)amino]-2-methyl-5-phenylpentanoate], the half-maximal inhibitory concentration (IC50) in series [1] (setting [5]) was 5.32 nM; in series [2] (setting [7]) it was 2.46 nM; in series [3] (setting [9]), greater than 400 nM.

As to `COC(=O)[C@@H](C)C[C@H](Cc1ccccc1)NC(=O)c1csc([C@@H](C[C@H](C(C)C)N(C)C(=O)[C@H](CC(F)(F)F)NC(=O)[C@H]2CCCCN2C)OC(C)=O)n1` [Tb81, Methyl (2S,4R)-4-[({2-[(1R,3R)-1-acetoxy-4-methyl-3-{methyl[(2S)-4,4,4-trifluoro-2-({[(2R)-1-meth-ylpiperidin-2-yl]carbonyl}amino)butanoyl]amino}pentyl]-1,3-thiazol-4-yl}carbonyl)amino]-2-methyl-5-phenylpentanoate], the figures for the IC50 in series [1] (setting [5]), in series [2] (setting [7]) and in series [3] (setting [9]) were 5.84 nM, 4.98 nM and greater than 1000 nM, respectively.

For the compound `COC(=O)[C@@H](C)C[C@H](Cc1ccccc1)NC(=O)c1csc([C@@H](C[C@H](C(C)C)N(C)C(=O)[C@H](C)NC(=O)[C@H]2CCCN2C)OC(C)=O)n1` [Tb90, Methyl (2S,4R)-4-[({2-[(1R,3R)-1-acetoxy-4-methyl-3-{methyl[(2S)-2-({[(2R)-1-methylpyrrolidin-2-yl]carbonyl}amino)propanoyl]amino}pentyl]-1,3-thiazol-4-yl}carbonyl)amino]-2-methyl-5-phenylpentanoate], the IC50 in series [1] (setting [5]) is greater than 1000 nM; in series [2] (setting [7]) it was 636 nM; in series [3] (setting [9]), greater than 1000 nM.
